From US9073941B2, “Compounds and methods for treating tuberculosis infection” (Academia Sinica, priority 2010, dated 2015)
Values after ≈ are worked out from the molar mass of the structure shown. Read-outs that look alike come from different tables or passages of the source.

How the values were obtained:
[1] = test system: Mycobacterium tuberculosis strains H37Rv; experiment: In Vitro Antitubercular H37Rv MIC Assay (resazurin); format: cell-based; details: 168 h
Mtb PDH (Lpd+DlaT+AceE) = Mtb PDH (Lpd+DlaT+AceE) (Mycobacterium tuberculosis (strain ATCC 25618 / H37Rv), UniProt P9WHH9); experiment: PDH Inhibition Activity; format: biochemical
[2] = molecular target: lipoamide dehydrogenase (Lpd) (Mycobacterium tuberculosis (strain ATCC 25618 / H37Rv), UniProt P9WHH9); experiment: Lipoamide Dehydrogenase (Lpd) Inhibition Assay; format: biochemical
[3] = growth of Mycobacterium tuberculosis H37Rv, 7H9 medium, 7 days, tested 8-0.25 μg/mL
[4] = concentration required for 50% inhibition of PDH activity, fluorescence ex 360 nm / em 460 nm, read-out: PDH IC50
[5] = concentration required for 50% inhibition of LPD activity, DTNB detection, OD405 nm
[6] = Mycobacterium tuberculosis, H37RV

## Cn1nc(-c2ccc(Cl)c(Cl)c2)nc2c(=O)n(C)c(=O)nc1-2 [Compound 604]
[1]; [3]
  MIC: > 8 µg/mL
Mtb PDH (Lpd+DlaT+AceE)
  IC50: < 40 nM
[2]
  IC50: 140 ± 10 nM

## CCOC(=O)/C=C\CBr [(XVI)]
[1]; [3]
  MIC: ≤ 0.25 µg/mL
Mtb PDH (Lpd+DlaT+AceE); [4]
  IC50: 1650 nM
[2]; [5]
  IC50: 2920 ± 880 nM

## CCn1nc(/C=C/c2ccccc2)nc2c(=O)n(C)c(=O)nc1-2 [Compound 609]
[1]; [6]
  MIC: > 8 µg/mL
Mtb PDH (Lpd+DlaT+AceE); [4]
  IC50: < 40 nM
[2]; [5]
  IC50: < 40 nM

## O=C1C(=O)c2nn(-c3ccccc3)nc2-c2ccccc21 [Compound 905]
[1]; [3]
  MIC: 8 µg/mL (≈ 29.1 µM)
Mtb PDH (Lpd+DlaT+AceE)
  IC50: < 40 nM
[2]
  IC50: < 40 nM

## Nc1ccc2c(c1)C(=O)C(=O)c1ccccc1-2 [Compound 902]
[1]; [3]
  MIC: > 8 µg/mL
Mtb PDH (Lpd+DlaT+AceE); [4]
  IC50: 788 nM
[2]; [5]
  IC50: 670 ± 70 nM

## COc1ccc(-c2nc3c(=O)n(C)c(=O)nc-3n(C)n2)cc1OC [Compound 606]
[1]; [3]
  MIC: > 8 µg/mL
Mtb PDH (Lpd+DlaT+AceE); [4]
  IC50: 1440 nM
[2]; [5]
  IC50: 960 ± 70 nM

## COc1ccc(-c2nc3c(=O)n(C)c(=O)nc-3n(C)n2)cc1 [Compound 605]
[1]; [3]
  MIC: 8 µg/mL (≈ 26.7 µM)
Mtb PDH (Lpd+DlaT+AceE); [4]
  IC50: < 40 nM
[2]; [5]
  IC50: 70 ± 10 nM

## CCn1nc(-c2cccs2)nc2c(=O)n(C)c(=O)nc1-2 [Compound 610]
[1]; [6]
  MIC: > 8 µg/mL
Mtb PDH (Lpd+DlaT+AceE); [4]
  IC50: < 40 nM
[2]; [5]
  IC50: < 40 nM

## CCCCn1c(NC(=O)c2ccc(Br)o2)c(C#N)c2nc3ccccc3nc21 [Compound 1001]
[1]; [3]
  MIC: > 8 µg/mL
Mtb PDH (Lpd+DlaT+AceE); [4]
  IC50: 954 nM
[2]; [5]
  IC50: 1080 ± 240 nM

## O=C1C(=O)c2cc([N+](=O)[O-])ccc2-c2ccccc21 [Compound 904]
[1]; [3]
  MIC: > 8 µg/mL
Mtb PDH (Lpd+DlaT+AceE); [4]
  IC50: 691 nM
[2]; [5]
  IC50: 640 ± 50 nM

## Cc1nc2c(=O)n(C)c(=O)nc-2n(C)n1 [Compound 611]
[1]; [6]
  MIC: 4 µg/mL (≈ 19.3 µM)
Mtb PDH (Lpd+DlaT+AceE); [4]
  IC50: < 40 nM
[2]; [5]
  IC50: 80 ± 10 nM

## CCn1nc(-c2ccc(OC)cc2)nc2c(=O)n(C)c(=O)nc1-2 [Compound 607]
[1]; [3]
  MIC: 8 µg/mL (≈ 25.5 µM)
Mtb PDH (Lpd+DlaT+AceE); [4]
  IC50: < 40 nM
[2]; [5]
  IC50: 60 ± 10 nM

## CC1(C)C(=O)N=C2c3ccccc3C(=O)C(=O)C21 (stereo not drawn) [Compound 903]
[1]; [3]
  MIC: > 8 µg/mL
Mtb PDH (Lpd+DlaT+AceE); [4]
  IC50: 1170 nM
[2]; [5]
  IC50: 860 ± 80 nM

## C=CCn1c(NS(=O)(=O)c2ccccc2)c(C#N)c2nc3ccccc3nc21 [Compound 1002]
[1]; [3]
  MIC: > 8 µg/mL
Mtb PDH (Lpd+DlaT+AceE); [4]
  IC50: 3320 nM
[2]; [5]
  IC50: 980 ± 150 nM

## CCn1nc(-c2ccccc2)nc2c(=O)n(C)c(=O)nc1-2 [Compound 602]
[1]; [6]
  MIC: > 8 µg/mL
Mtb PDH (Lpd+DlaT+AceE)
  IC50: < 40 nM
[2]
  IC50: 230 ± 20 nM

## Cc1ccc(CNC(=O)C2CCN(S(=O)(=O)c3cn(C(C)C)cn3)CC2)cc1 [Compound 501]
[1]; [3]
  MIC: > 8 µg/mL
Mtb PDH (Lpd+DlaT+AceE); [4]
  IC50: 3130 nM
[2]; [5]
  IC50: 3050 ± 1050 nM

## CCn1nc(-c2cccnc2)nc2c(=O)n(C)c(=O)nc1-2 [Compound 608]
[1]; [6]
  MIC: > 8 µg/mL
Mtb PDH (Lpd+DlaT+AceE)
  IC50: < 40 nM
[2]
  IC50: 190 ± 30 nM

## Cn1nc(-c2ccc(Cl)cc2)nc2c(=O)n(C)c(=O)nc1-2 [Compound 603]
[1]; [3]
  MIC: > 8 µg/mL
Mtb PDH (Lpd+DlaT+AceE)
  IC50: < 40 nM
[2]
  IC50: 100 ± 10 nM
